Assay results from patent US8920854B2, “Oral care compositions for treating xerostomia” (Georgia Regents Research Institute, priority 2009, dated 2014).

How the values were obtained:
Format in all cases: in vivo, mouse
[1] = tested on: PCNA; experiment: PCNA immunostaining of submandibular glands, NOD/Lt mice; conditions: 0.2% EGCG in drinking water, between 16 and 22 weeks of age
From the text: (§1) Submandibular salivary gland samples from BALB/c (left), water-fed (middle), and EGCG-fed (right) NOD/Lt mice were stained with ApopTag Plus Peroxidase in situ apoptosis detection method according to the manufacturer's instructions. Arrows point to the nuclear staining of TUNEL-positive cells. […] Submandibular salivary gland samples from BALB/c (left), water-fed (middle), and EGCG-fed (right) NOD/Lt mice were immunostained with the anti-PCNA antibody. Arrows point to the nuclear staining of PCNA-positive cells. […] Submandibular salivary gland samples from BALB/c (left), water-fed (middle), and EGCG-fed (right) NOD/Lt mice were immunostained with the anti-Ki-67 antibody. Arrows point to the nuclear staining of Ki-67-positive cells. […] Solid bars represent the average percentage of TUNEL-positive cells in the submandibular gland of water-fed NOD/Lt mice. Open bars represent the average of TUNEL-positive cells in the submandibular gland of EGCG-fed NOD/Lt mice. […] Solid bars represent the average percentage of PCNA-positive cells in the submandibular gland of water-fed NOD/Lt mice. Open bars represent the average of PCNA-positive cells in the submandibular gland of EGCG-fed NOD/Lt mice. […] Solid bars represent the average of Ki-67-positive cells in the submandibular gland of water-fed NOD/Lt mice. Open bars represent the average of Ki-67-positive cells in the submandibular gland of […] […]

[2] = tested on: catalase; experiment: Antioxidant capacity by immunohistochemistry in NOD mice: catalase; conditions: submandibular salivary glands, EGCG-fed NOD/Lt mice, 22 weeks; n=12, p<0.04
From the text: (§2) FIGS. 8A-8C, 8D-8F show representative immunostaining of peroxiredoxin 6 (FIGS. 8A-C) and catalase (FIGS. 8D-F) expression in glandular epithelium of 22 week old water-fed (FIGS. 8A, 8D) and EGCG-treated NOD mice (FIGS. 8B, 8E) (magnification 200×). FIGS. 8C and 8F show statistical analysis of peroxiredoxin 6 and Catalase-positive cells. Black arrows point to ductal cells; open arrow to acinar cells (FIG. 8B). Salivary gland and pancreas samples were obtained at 22 weeks of age from NOD mice fed water or EGCG-water (12 animals per group), and from control BALB/c mice. The antioxidant capacity represented by protein levels of peroxiredoxin 6, superoxide dismutase 1 (SOD1), catalase, and glutathione peroxidase was measured by immunohistochemstry.

[3] = tested on: peroxiredoxin 6; experiment: Antioxidant capacity by immunohistochemistry in NOD mice: peroxiredoxin 6; conditions: 22 weeks
From the text: as §2

[4] = tested on: TUNEL-positive cells in submandibular gland; experiment: Apoptotic activity in salivary glands by TUNEL staining, NOD/Lt mice; conditions: 0.2% EGCG in drinking water, 8, 16, 22 weeks
From the text: Submandibular salivary gland samples from BALB/c (left), water-fed (middle), and EGCG-fed (right) NOD/Lt mice were stained with ApopTag Plus Peroxidase in situ apoptosis detection method according to the manufacturer's instructions. Arrows point to the nuclear staining of TUNEL-positive cells. […] Submandibular salivary gland samples from BALB/c (left), water-fed (middle), and EGCG-fed (right) NOD/Lt mice were immunostained with the anti-PCNA antibody. Arrows point to the nuclear staining of PCNA-positive cells. […] Submandibular salivary gland samples from BALB/c (left), water-fed (middle), and EGCG-fed (right) NOD/Lt mice were immunostained with the anti-Ki-67 antibody. Arrows point to the nuclear staining of Ki-67-positive cells. […] Solid bars represent the average percentage of TUNEL-positive cells in the submandibular gland of water-fed NOD/Lt mice. Open bars represent the average of TUNEL-positive cells in the submandibular gland of EGCG-fed NOD/Lt mice. […] Solid bars represent the average percentage of PCNA-positive cells in the submandibular gland of water-fed NOD/Lt mice. […] The apoptotic activity was determined by TUNEL staining of the salivary glands (FIG. 5A) and quantification (FIG. 6A). […] Although it was not determined which cells were undergoing apoptosis, there was no significant apoptotic activity in the majority of secretory cells (Gillespie K, et al. 2008).

[5] = tested on: Ki-67; experiment: Ki-67 immunostaining of submandibular glands, NOD/Lt mice; conditions: 0.2% EGCG in drinking water, 8, 16, 22 weeks
From the text: as §1

[6] = tested on: superoxide dismutase 1 (SOD1); experiment: Antioxidant capacity by immunohistochemistry in NOD mice: SOD1; conditions: EGCG-fed NOD mice, 22 weeks, n=12, P<0.0001
Experimental: Salivary gland and pancreas samples were obtained at 22 weeks of age from NOD mice fed water or EGCG-water (12 animals per group), and from control BALB/c mice. The antioxidant capacity represented by protein levels of peroxiredoxin 6, superoxide dismutase 1 (SOD1), catalase, and glutathione peroxidase was measured by immunohistochemstry.

[7] = tested on: NOD/Lt mice; experiment: Submandibular gland lymphocytic infiltration in EGCG/water-fed NOD/Lt mice; conditions: 0.2% EGCG in drinking water
Experimental: Animals were fed either with EGCG/water or water only. At the age of 8 (n=36), 16 (n=36) and 22 weeks (n=27), submandibular glands were dissected, processed and stained by H&E. Three randomly selected areas of lymphocytic infiltrates were measured in each gland as relative density units generated by BIOQUANT NOVA PRIME 6.75 software, representing area sizes. Error bars are standard error of means (SEM). […] An animal study was conducted to examine whether EGCG fed prior to development of exocrinopathy is protective against salivary gland lymphocyte infiltration and gland abnormalities. Since EGCG is the most abundant green tea polyphenol, and widely used in scientific studies, this compound was selected for this feasibility study using 0.2% EGCG in drinking water (Gillespie K, et al. 2008).

In the case of `O=C(O[C@@H]1Cc2c(O)cc(O)cc2O[C@@H]1c1cc(O)c(O)c(O)c1)c1cc(O)c(O)c(O)c1` [EGCG, epigallocatechin-3-gallate], the “PCNA-positive cells in submandibular glands” value [1] is reported as “considerably reduces the rise of PCNA”, the “expression of catalase vs water only fed mice” value [2] is reported as “significantly higher” and the “peroxiredoxin 6 level in the pancreas” value ([3]; pancreas, EGCG-fed NOD mice, n=12, P<0.0001) is reported as “normalized to BALB/c levels”. For the same molecule, the “expression of peroxiredoxin 6 vs water only fed mice” value ([3]; submandibular salivary glands, EGCG-fed NOD/Lt mice, n=12, p<0.04) was “significantly higher”, the “apoptosis in the glandular epithelium (TUNEL)” value [4] was “did not affect” and the “apoptosis in the infiltrates (TUNEL)” value [4] was “initially raising levels, but blocking the considerable increase seen at 22 weeks in water-fed mice”. For the same molecule, the “Ki-67 levels in submandibular glands” value [5] was “affected by EGCG in the same pattern”, the “SOD1 level in the pancreas” value [6] was “normalized to BALB/c levels” and the “average area of lymphocytic infiltration vs water-fed group” value ([7]; 16 weeks of age, p=0.026) was “significantly lower”. For the same molecule, the “average area of lymphocytic infiltration vs water-fed group” value ([7]; 22 weeks of age) was “no significant difference”.
